{
  "source": "patent US11406590B2",
  "about": "“Essential oil emulsion nostril treatment composition” (King Abdulaziz University, priority 2020, dated 2022)",
  "tested_on": "Salmonella enterica subsp. Enterica serovar typhimurium (ATCC 29629, TA 1535)",
  "assay": "Ames test of liposomal preparation",
  "type": "cell-based",
  "details": "20 and 200 nmol",
  "experimental": "To evaluate the safety of the liposomal preparation described in Example 1, the Ames test is performed according to the procedure described by, and incorporated by reference to, Ames et al, Carcinogens are mutagens: their detection and classification. Environ Health Perspect. 1973 December; 6:115-8; Mortelmans and Zeiger, The Ames Salmonella/microsome mutagenicity assay. Mutat Res. 2000 Nov. 20; 455(1-2):29-60.\nBriefly, the test organism Salmonella enterica subsp. Enterica serovar typhimurium (ATCC® 29629-Strain Designations: TA 1535), an auxotrophic mutant, is provided by ATCC, Manassas, USA. This auxotrophic isolate has a mutation in its DNA which prevents it from producing histidine and thus requires histidine for its growth.\nPotentially mutagenic substances are identified by contacting them with this auxotrophic mutant and measuring the frequency of mutations that restore the ability of this auxotroph to grown a medium not containing histidine. […]\nA degree of mutagenicity of the liposome preparation is determined by comparison of the number of colonies appearing on the negative and positive controls and the number of colonies on the solid medium containing different concentrations of the liposome preparation containing the essential oil-in-water emulsion of Example 1.",
  "data": [
    {"compound": "CC[n+]1c(-c2ccccc2)c2cc(N)ccc2c2ccc(N)cc21", "note": "[ethidium bromide]", "values": [
      {"measurement": "Colony counts on positive control plates", "result": "significant increase"}
    ]}
  ]
}
